Test results from the NIST ThermoML archive (doi:10.1016/j.fluid.2016.08.014).

Legend:
[1] = Liquid, Vibrating tube method
[2] = refractive index (Na D-line) (dimensionless); conditions: 298.15 K; 101.33 kPa; Liquid; Standard Abbe refractometry

CN(C)C=O [dimethylformamide]
[1]
Conditions | mass density [kg/m3]
293.15 K, 100 kPa | 949
293.15 K, 2500 kPa | 950
293.15 K, 5100 kPa | 952
293.15 K, 10100 kPa | 955
293.15 K, 15100 kPa | 958
293.15 K, 20100 kPa | 960
293.15 K, 25000 kPa | 963
293.15 K, 30300 kPa | 966
298.15 K, 101.33 kPa | 943.978
303.15 K, 100 kPa | 939
303.15 K, 2500 kPa | 941
303.15 K, 5100 kPa | 943
303.15 K, 10000 kPa | 940
303.15 K, 15100 kPa | 949
303.15 K, 20100 kPa | 951
303.15 K, 25000 kPa | 954
303.15 K, 30100 kPa | 957
313.15 K, 100 kPa | 930
313.15 K, 2600 kPa | 931
313.15 K, 5100 kPa | 933
313.15 K, 10000 kPa | 936
313.15 K, 15100 kPa | 939
313.15 K, 20100 kPa | 942
313.15 K, 25000 kPa | 945
313.15 K, 30100 kPa | 948
323.15 K, 100 kPa | 920
323.15 K, 2500 kPa | 922
323.15 K, 5100 kPa | 924
323.15 K, 10000 kPa | 927
323.15 K, 15100 kPa | 930
323.15 K, 20100 kPa | 934
323.15 K, 25100 kPa | 937
323.15 K, 30400 kPa | 940
333.15 K, 200 kPa | 910
333.15 K, 2600 kPa | 912
333.15 K, 5000 kPa | 914
333.15 K, 10200 kPa | 918
333.15 K, 15000 kPa | 921
333.15 K, 20300 kPa | 925
333.15 K, 25100 kPa | 928
333.15 K, 30200 kPa | 931
343.15 K, 200 kPa | 900
343.15 K, 2500 kPa | 903
343.15 K, 5200 kPa | 905
343.15 K, 10000 kPa | 908
343.15 K, 15000 kPa | 912
343.15 K, 20100 kPa | 916
343.15 K, 25100 kPa | 919
343.15 K, 30400 kPa | 922
353.15 K, 200 kPa | 890
353.15 K, 2500 kPa | 893
353.15 K, 5100 kPa | 895
353.15 K, 10100 kPa | 899
353.15 K, 15000 kPa | 903
353.15 K, 20100 kPa | 907
353.15 K, 25100 kPa | 910
353.15 K, 30200 kPa | 914
363.15 K, 200 kPa | 881
363.15 K, 2600 kPa | 883
363.15 K, 5000 kPa | 885
363.15 K, 10100 kPa | 890
363.15 K, 15100 kPa | 894
363.15 K, 20100 kPa | 897
363.15 K, 25100 kPa | 901
363.15 K, 30100 kPa | 905
373.15 K, 100 kPa | 871
373.15 K, 2600 kPa | 873
373.15 K, 5000 kPa | 876
373.15 K, 10100 kPa | 880
373.15 K, 15300 kPa | 885
373.15 K, 20100 kPa | 888
373.15 K, 25100 kPa | 892
373.15 K, 30100 kPa | 896
383.15 K, 100 kPa | 860
383.15 K, 2500 kPa | 863
383.15 K, 5100 kPa | 866
383.15 K, 10000 kPa | 870
383.15 K, 15100 kPa | 875
383.15 K, 20200 kPa | 880
383.15 K, 25100 kPa | 884
383.15 K, 30300 kPa | 888
393.15 K, 100 kPa | 851
393.15 K, 2600 kPa | 853
393.15 K, 5200 kPa | 856
393.15 K, 10000 kPa | 861
393.15 K, 15000 kPa | 866
393.15 K, 20100 kPa | 870
393.15 K, 25100 kPa | 875
393.15 K, 30400 kPa | 879
403.15 K, 100 kPa | 840
403.15 K, 2600 kPa | 843
403.15 K, 5000 kPa | 846
403.15 K, 10100 kPa | 851
403.15 K, 15100 kPa | 856
403.15 K, 20100 kPa | 861
403.15 K, 25100 kPa | 866
403.15 K, 30300 kPa | 870
413.15 K, 200 kPa | 830
413.15 K, 2500 kPa | 833
413.15 K, 5000 kPa | 836
413.15 K, 10200 kPa | 842
413.15 K, 14900 kPa | 847
413.15 K, 20000 kPa | 852
413.15 K, 25200 kPa | 857
413.15 K, 30000 kPa | 861

Conditions | refractive index
[2] | 1.42844
